The subject of the data set is Human Adipose-Derived Mesenchymal Stem Cells (AD-MSC). In words: Confirmation of cytotoxicity (CCK-8 activity test and SRB staining). Type of data set: cell-based. As to conditions: about 1 to 200 µg/ml, 7 days of culture; for cytotoxicity: CCK-8; for change in cell morphology: SRB staining, microscope. As to the method: Human Adipose-Derived Mesenchymal Stem Cells (AD-MSC) were treated with Peptide-1 or Peptide-2 to determine whether they were cytotoxic.
Specifically, AD-MSCs were seeded in 96-well plates at a concentration of about 1.5 x 10^3 cells/well and cultured in DMEM medium (about 10 % FBS + DMEM medium) for about 24 hours. […] After 7 days of culture, about 1/10 of the culture medium was treated with a CCK-8 (Dojindo, CCK-8 kit) solution and cultured for about 2 hours. After incubation, the culture medium was sampled and the absorbance was measured at a wavelength of about 450 nm using a microplate reader. After measuring the absorbance, the medium in the culture medium in the 96-well plate was removed, and about 60 µl of 3.7 % formalin was added to the 96-well plate to fix the cells for about 1 minute. After cell fixation, the formalin was removed, and about 70 ul of SRB staining solution (about 0.2 g of Sulforhodamine B sodium salt (sigma, S9012) dissolved in about 100 ml of double-distilled water) was added to the fixed cells, and the cells were stained by culturing overnight at room temperature in a lightblocking condition. After cell staining, the cells were washed with about 1 % acetic acid and dried. The dried cells were observed under a microscope. As control groups, an experimental group (CON) that was not treated with the above peptide and an experimental group (CM) treated with a solution containing about 100 nM dexamethasone, about 50 µM ascorbic acid, about 40 µM proline, about 10 ng/ml TGFβ1, and 1X ITS instead of the above peptide were used.

The record followed here is patent EP4631969A1, “PEPTIDE FOR CARTILAGE REGENERATION, AND USES THEREOF” (Caregen Co., Ltd., priority 2022, dated 2024).

Where no end group is shown, it is not given here.

For HHEQF [Peptide-2, HHEQF], the cytotoxicity entry is recorded as “no cytotoxicity was caused” and the “change in cell morphology” value is “no change in cell morphology occurred at all concentrations”.

Turning to STGALSTSFTEE [Peptide-1, STGALSTSFTEE], the cytotoxicity entry was “no cytotoxicity was caused” and the “change in cell morphology” value is “no change in cell morphology occurred at all concentrations”.
